How the values were obtained:
[1] = biological target: T1, Peroxisome proliferator-activated receptor gamma (Homo sapiens) (UniProt P37231); assay: Antagonist activity at PPAR-gamma (unknown origin) transfected in human HEK293 cells assessed as decrease in rosiglitazone-induced receptor transactivation at 10 uM by dual-luciferase reporter gene assay relative to control; format: cell-based
T1 sequence (whole entry): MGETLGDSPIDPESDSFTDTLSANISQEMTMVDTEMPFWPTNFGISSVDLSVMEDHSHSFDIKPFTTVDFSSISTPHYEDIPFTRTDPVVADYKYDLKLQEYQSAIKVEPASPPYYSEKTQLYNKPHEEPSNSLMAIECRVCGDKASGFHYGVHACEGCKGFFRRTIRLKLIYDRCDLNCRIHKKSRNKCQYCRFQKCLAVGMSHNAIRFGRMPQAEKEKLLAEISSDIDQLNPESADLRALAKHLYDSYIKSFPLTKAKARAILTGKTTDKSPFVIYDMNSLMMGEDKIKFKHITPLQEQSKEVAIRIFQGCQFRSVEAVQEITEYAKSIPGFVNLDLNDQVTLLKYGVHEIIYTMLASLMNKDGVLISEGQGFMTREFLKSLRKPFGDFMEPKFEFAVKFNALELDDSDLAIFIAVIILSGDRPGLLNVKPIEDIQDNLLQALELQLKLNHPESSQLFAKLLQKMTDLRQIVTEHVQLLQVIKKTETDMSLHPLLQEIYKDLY

[2] = biological target: T1, Peroxisome proliferator-activated receptor gamma (Homo sapiens); assay: Antagonist activity at PPAR-gamma (unknown origin) transfected in human HEK293 cells assessed as decrease in rosiglitazone-induced receptor transactivation at 1 uM by dual-luciferase reporter gene assay relative to control; format: cell-based
[3] = Induction of insulin-sensitizing activity in insulin-resistant human HepG2 cells assessed as increase in glucose consumption at 0.1 uM relative to control; format: functional
[4] = Induction of insulin-sensitizing activity in insulin-resistant human HepG2 cells assessed as glucose consumption at 0.1 uM (reference value: 5.83 +/-0.101 mM); format: functional
[5] = Induction of insulin-sensitizing activity in insulin-resistant mouse 3T3-L1 cells assessed as glucose consumption at 0.1 uM (reference value: 3.354 +/- 0.342 mM); format: functional
[6] = Induction of insulin-sensitizing activity in insulin-resistant mouse 3T3-L1 cells assessed as increase in glucose consumption at 0.1 uM relative to control; format: functional
[7] = Cytotoxicity against human HepG2 cells assessed as cell viability at 0.1 uM; format: toxicity, cell-based; conditions: read-out: Activity
[8] = Cytotoxicity against mouse 3T3-L1 cells assessed as cell viability at 0.1 uM; format: toxicity, cell-based; conditions: read-out: Activity
Mus musculus = species on record: Mus musculus; assay: Hypoglycemic activity in db/db mouse assessed as AUC of blood glucose level by oral glucose tolerance test (reference value: 114.8 mmol.min/L); format: functional

Row | Structure (SMILES) | inhibition ([1]; filed as antagonist) | inhibition [2] | Activity [3] | Activity [4] | Activity [5] | Activity [6] | inhibition [1] | viability at 0.1 µM [7] | viability at 0.1 µM [8] | AUC (Mus musculus)
1 | COc1ccc(-c2cccc(C(=O)Cc3c(CC=C(C)C)c(OC)cc(O)c3C(=O)O)c2)c(F)c1 | 84.7% | -0.4% | 18.83% | 6.928 mM | 7.335 mM | 95.64% |  |  |  | 
2 | COc1ccc(-c2cccc(C(=O)Cc3cc(OC)c(CC=C(C)C)c(O)c3C(=O)O)c2)c(F)c1 |  |  | 37.05% | 7.992 mM | 6.591 mM | 75.81% | 16.4% |  |  | 
3 | COc1cc(CC(=O)c2cccc(-c3ccnc(Cl)c3)c2)c(C(=O)O)c(O)c1CC=C(C)C |  | 12.7% | 25.88% | 7.34 mM | 5.501 mM | 46.74% | 11.1% |  |  | 
4 | COc1cc(CC(=O)c2cccc(-c3ccccc3Cl)c2)c(C(=O)O)c(O)c1CC=C(C)C | 57.5% | 24.1% | 43.55% | 8.371 mM | 5.969 mM | 59.21% |  |  |  | 
5 | COc1ccc(-c2cccc(C(=O)Cc3cc(OC)c(CC=C(C)C)c(O)c3C(=O)O)c2)cc1 |  |  | 27.56% | 7.438 mM | 7.533 mM | 100.93% | 20.8% |  |  | 
6 | COc1cc(O)c(C(=O)O)c(CC(=O)c2cccc(-c3cccc(C(F)(F)F)c3)c2)c1CC=C(C)C |  | -2.4% | 42.45% | 8.306 mM | 6.427 mM | 71.43% | 39.6% |  |  | 
7 | O=C(Nc1ccccc1)c1cc([N+](=O)[O-])ccc1Cl | 99.1% | 10.9% |  |  |  |  |  |  |  | 
8 | COc1cc(O)c(C(=O)O)c(CC(=O)c2cccc(-c3ccsc3)c2)c1CC=C(C)C | 43.7% | 24.3% | 3.71% | 6.047 mM | 6.404 mM | 70.82% |  | < 80% |  | 
9 | COc1cc(O)c(C(=O)O)c(CC(=O)c2cccc(-c3ccc(Cl)cc3)c2)c1CC=C(C)C | 71% | 19.3% | 38.76% | 8.091 mM | 7.257 mM | 93.55% |  |  |  | 
10 | COc1cc(O)c(C(=O)O)c(CC(=O)c2ccccc2)c1CC=C(C)C |  | 12.9% | 20.66% | 6.729 mM |  |  | 39% |  |  | 
11 | COc1cc(CC(=O)c2cccc(-c3cccc(C(F)(F)F)c3)c2)c(C(=O)O)c(O)c1CC=C(C)C | 50.9% | -6.1% | 48.32% | 8.649 mM | 5.151 mM | 37.4% |  |  |  | 
12 | COc1cc(CC(=O)c2cccc(-c3ccsc3)c2)c(C(=O)O)c(O)c1CC=C(C)C | 47.7% | 7.7% | 39.36% | 8.126 mM | 8.145 mM | 117.26% |  |  |  | 
13 | COc1cc(CC(=O)c2cccc(C3CC3)c2)c(C(=O)O)c(O)c1CC=C(C)C | 77.7% | 17.7% | 14.83% | 6.696 mM | 5.686 mM | 51.66% |  |  |  | 
14 | CN(CCOc1ccc(CC2SC(=O)NC2=O)cc1)c1ccccn1 (stereo not given) [ROSIGLITAZONE] |  |  | 22.74% | 7.15 mM | 5.421 mM | 44.58% |  |  |  | 
15 | CCc1ccc(-c2cccc(C(=O)Cc3c(CC=C(C)C)c(OC)cc(O)c3C(=O)O)c2)cc1 | 60.2% | -8.3% | 40.66% | 8.202 mM | 6.655 mM | 77.5% |  |  |  | 
16 | COc1cc(CC(=O)c2cccc(-c3cccnc3)c2)c(C(=O)O)c(O)c1CC=C(C)C |  |  | 18.84% | 6.93 mM | 4.554 mM | 21.46% | 31.7% | < 80% |  | 

Row | Structure (SMILES) | inhibition ([1]; filed as antagonist) | inhibition [2] | Activity [3] | Activity [4] | Activity [5] | Activity [6] | inhibition [1] | viability at 0.1 µM [7] | viability at 0.1 µM [8] | AUC (Mus musculus)
17 | COc1ccc(-c2cccc(C(=O)Cc3c(CC=C(C)C)c(OC)cc(O)c3C(=O)O)c2)cc1 | 79.5% | 36.9% | 24.38% | 7.252 mM | 7.69 mM | 105.12% |  |  |  | 
18 | CCc1ccc(-c2cccc(C(=O)Cc3cc(OC)c(CC=C(C)C)c(O)c3C(=O)O)c2)cc1 |  |  | 36.01% | 7.93 mM | 7.042 mM | 87.84% | 8.1% |  |  | 
19 | COc1cc(O)c(C(=O)O)c(CC(=O)c2cccc(-c3ccc(C)cc3)c2)c1CC=C(C)C | 64.5% | 23.9% | 28.49% | 7.492 mM | 7.488 mM | 99.73% |  |  |  | 
20 | COc1cc(O)c(C(=O)O)c(CC(=O)c2cccc(-c3ccccc3C(F)(F)F)c2)c1CC=C(C)C | 80.1% |  | 41.5% | 8.251 mM | 5.688 mM | 51.71% |  |  |  | 
21 | COc1cc(CC(=O)c2cccc(-c3ccc(F)cc3)c2)c(C(=O)O)c(O)c1CC=C(C)C |  |  | -10.9% | 5.195 mM | 3.741 mM | -0.2% |  |  | < 50% | 
22 | COc1cc(CC(=O)c2cccc(-c3ccccc3C(F)(F)F)c2)c(C(=O)O)c(O)c1CC=C(C)C | 40.5% |  | 43.51% | 8.368 mM | 4.333 mM | 15.58% |  |  | < 50% | 
23 | COc1cc(O)c(C(=O)O)c(CC(=O)c2cccc(-c3cncnc3)c2)c1CC=C(C)C | 55% | 11.5% | 5.76% | 6.171 mM | 3.405 mM | -11.08% |  | < 80% |  | 
24 | CCc1ccc(CCOc2ccc(CC3SC(=O)NC3=O)cc2)nc1 (stereo not given) [PIOGLITAZONE] |  |  |  |  |  |  |  |  |  | 94.8 mmol·min/L
25 | COc1cc(O)c(C(=O)O)c(CC(=O)c2cccc(-c3cccnc3)c2)c1CC=C(C)C | 82.5% | -3.8% | 1.49% | 5.917 mM | 3.107 mM | -17.14% |  | < 80% |  | 
26 | COc1cc(CC(=O)c2cccc(-c3ccc(Cl)cc3)c2)c(C(=O)O)c(O)c1CC=C(C)C |  |  | 39.56% | 8.138 mM | 7.165 mM | 91.12% | 26.6% |  |  | 
27 | COc1cc(CC(=O)c2cccc(-c3ccc(C)cc3)c2)c(C(=O)O)c(O)c1CC=C(C)C |  |  | 35.25% | 7.886 mM | 7.712 mM | 105.7% |  |  |  | 
28 | COc1cc(O)c(C(=O)O)c(CC(=O)c2cccc(-c3ccc(F)cc3)c2)c1CC=C(C)C | 66% | 16% | 29.73% | 7.564 mM | 6.637 mM | 77.02% |  |  |  | 
29 | COc1cc(O)c(C(=O)O)c(CC(=O)c2cccc(-c3ccnc(Cl)c3)c2)c1CC=C(C)C | 92.3% | 19.9% | 8.36% | 6.318 mM | 5.579 mM | 48.82% |  | < 80% |  | 
30 | COc1cc(CC(=O)c2cccc(-c3cncnc3)c2)c(C(=O)O)c(O)c1CC=C(C)C |  | 4.6% | 10.28% | 6.43 mM | 4.09 mM | 9.11% | 10.3% | < 80% |  | 
31 | COc1cc(O)c(C(=O)O)c(CC(=O)c2cccc(C3CC3)c2)c1CC=C(C)C | 81.2% | 34.6% | 2.94% | 6.002 mM | 5.099 mM | 36% |  |  |  | 

Source: ChEMBL document CHEMBL5236599, “Design, synthesis and biological evaluation of cajanonic acid A analogues as potent PPAR γ antagonists” (Bioorg Med Chem Lett, 2023)
